ChEMBL document CHEMBL6083273, “Targeting Periplakin of Novel Benzenesulfonamides as Highly Selective Agonists for the Treatment of Vitiligo” (2024)
The source made the active and inactive calls. No cut-off for these calls is given here.

Columns and labels:
Danio rerio [1] = organism: Danio rerio; assay: Induction of melanogenesis in zebrafish at 0.1 nM treated for 24 hrs by absorbance based assay; assay type: functional, organism-based
Danio rerio [2] = organism: Danio rerio; assay: Effect on tryptophan metabolism in zebrafish embryo assessed as NA metabolite level at 10 uM by LC/MS analysis; assay type: functional
Danio rerio [3] = organism: Danio rerio; assay: Effect on tryptophan metabolism in zebrafish embryo assessed as NAS metabolite level at 10 uM by LC/MS analysis; assay type: functional
Danio rerio [4] = organism: Danio rerio; assay: Effect on tryptophan metabolism in zebrafish embryo assessed as AA metabolite level at 10 uM by LC/MS analysis; assay type: functional
Danio rerio [5] = organism: Danio rerio; assay: Effect on tryptophan metabolism in zebrafish embryo assessed as 3-HK metabolite level at 10 uM by LC/MS analysis; assay type: functional
Danio rerio [6] = organism: Danio rerio; assay: Effect on tryptophan metabolism in zebrafish embryo assessed as IA metabolite level at 10 uM by LC/MS analysis; assay type: functional
Danio rerio [7] = organism: Danio rerio; assay: Effect on tryptophan metabolism in zebrafish embryo assessed as KYNA metabolite level at 10 uM by LC/MS analysis; assay type: functional
Danio rerio [8] = organism: Danio rerio; assay: Effect on tryptophan metabolism in zebrafish embryo assessed as 5-HIAA metabolite level at 10 uM by LC/MS analysis; assay type: functional
Danio rerio [9] = organism: Danio rerio; assay: Effect on tryptophan metabolism in zebrafish embryo assessed as IAA metabolite level at 10 uM by LC/MS analysis; assay type: functional
Danio rerio [10] = organism: Danio rerio; assay: Effect on tryptophan metabolism in zebrafish embryo assessed as 5-HTP metabolite level at 10 uM by LC/MS analysis; assay type: functional
Danio rerio [11] = organism: Danio rerio; assay: Effect on tryptophan metabolism in zebrafish embryo assessed as ICA metabolite level at 10 uM by LC/MS analysis; assay type: functional
Danio rerio [12] = organism: Danio rerio; assay: Effect on tryptophan metabolism in zebrafish embryo assessed as Trp metabolite level at 10 uM by LC/MS analysis; assay type: functional
Danio rerio [13] = organism: Danio rerio; assay: Effect on tryptophan metabolism in zebrafish embryo assessed as LE metabolite level at 10 uM by LC/MS analysis; assay type: functional
Danio rerio [14] = organism: Danio rerio; assay: Effect on tryptophan metabolism in zebrafish embryo assessed as IAN metabolite level at 10 uM by LC/MS analysis; assay type: functional
Danio rerio [15] = organism: Danio rerio; assay: Effect on tryptophan metabolism in zebrafish embryo assessed as skatole metabolite level at 10 uM by LC/MS analysis; assay type: functional
Danio rerio [16] = organism: Danio rerio; assay: Effect on tryptophan metabolism in zebrafish embryo assessed as Xa metabolite level at 10 uM by LC/MS analysis; assay type: functional
Danio rerio [17] = organism: Danio rerio; assay: Induction of melanogenesis in zebrafish treated for 24 hrs by absorbance based assay (reference value: 98.2 to 100.3 %); assay type: functional
Danio rerio [18] = organism: Danio rerio; assay: Effect on tryptophan metabolism in zebrafish embryo assessed as ILA metabolite level at 10 uM by LC/MS analysis; assay type: functional
Danio rerio [19] = organism: Danio rerio; assay: Effect on tryptophan metabolism in zebrafish embryo assessed as 3-HAA metabolite level at 10 uM by LC/MS analysis; assay type: functional
Danio rerio [20] = organism: Danio rerio; assay: Effect on tryptophan metabolism in zebrafish embryo assessed as indole metabolite level at 10 uM by LC/MS analysis; assay type: functional
Danio rerio [21] = organism: Danio rerio; assay: Effect on tryptophan metabolism in zebrafish embryo assessed as IPA metabolite level at 10 uM by LC/MS analysis; assay type: functional
Danio rerio [22] = organism: Danio rerio; assay: Induction of melanogenesis in zebrafish at 40 uM treated for 24 hrs by absorbance based assay; assay type: functional, organism-based
Danio rerio [23] = organism: Danio rerio; assay: Effect on tryptophan metabolism in zebrafish embryo assessed as IGA metabolite level at 10 uM by LC/MS analysis; assay type: functional
Danio rerio [24] = organism: Danio rerio; assay: Effect on histidine metabolism in zebrafish embryo at 10 uM by KEGG pathway-enrichment analysis; assay type: functional, organism-based
Danio rerio [25] = organism: Danio rerio; assay: Induction of melanogenesis in wild-type zebrafish at 10 uM treated for 24 hrs by absorbance based assay; assay type: functional, organism-based
Danio rerio [26] = organism: Danio rerio; assay: Induction of melanogenesis in zebrafish at 10 uM treated for 24 hrs by absorbance based assay; assay type: functional, organism-based
Danio rerio [27] = organism: Danio rerio; assay: Induction of melanogenesis in zebrafish treated for 24 hrs by absorbance based assay; assay type: functional, organism-based
Danio rerio [28] = organism: Danio rerio; assay: Effect on mitfa mRMA level in zebrafish harboring PPL-/- at 10 uM by qRT-PCR analysis; assay type: functional
Danio rerio [29] = organism: Danio rerio; assay: Induction of melanogenesis in zebrafish at 40 uM treated for 24 hrs by absorbance based assay relative to control; assay type: functional
Danio rerio [30] = organism: Danio rerio; assay: Effect on cAMP content in zebrafish harboring PPL-/- at 10 uM by ELISA; assay type: functional, organism-based
Danio rerio [31] = assay: In vivo agonist activity at PPL in zebrafish assessed as increase in Dct mRNA level at 10 uM by ISH analysis; assay type: functional, organism-based
Mus musculus [32] = assay: In vivo agonist activity at PPL in skin of hydroquinone-induced vitiligo C57BL/6J mouse at 1.5 % administered topically for 20 days by immunofluorescence analysis; assay type: functional, organism-based; settings: time 20.0 day
Danio rerio [33] = organism: Danio rerio; assay: Effect on pyrimidine metabolism in zebrafish embryo at 10 uM by KEGG pathway-enrichment analysis; assay type: functional, organism-based
Danio rerio [34] = assay: In vivo agonist activity at PPL in zebrafish assessed as increase in mitfa mRNA level at 10 uM by ISH analysis; assay type: functional, organism-based
Danio rerio [35] = organism: Danio rerio; assay: Effect on purine metabolism in zebrafish embryo at 10 uM by KEGG pathway-enrichment analysis; assay type: functional, organism-based
Danio rerio [36] = organism: Danio rerio; assay: Binding affinity to PPL in zebrafish at 10 uM by pull down assay; settings: filed as agonist
Danio rerio [37] = assay: In vivo agonist activity at PPL in zebrafish assessed as increase in mitfa mRNA level at 10 uM by qRT-PCR analysis; assay type: functional, organism-based
Danio rerio [38] = assay: In vivo agonist activity at PPL in zebrafish assessed as increase in cAMP content at 10 uM by ELISA; assay type: functional, organism-based
Danio rerio [39] = organism: Danio rerio; assay: Induction of melanogenesis in zebrafish harboring PPL-/- at 10 uM treated for 24 hrs by absorbance based assay; assay type: functional, organism-based
Danio rerio [40] = assay: In vivo agonist activity at PPL in zebrafish assessed as increase in Tyr mRNA level at 10 uM by ISH analysis; assay type: functional, organism-based
[41] = Induction of melanogenesis in co-culture of HEK293 cells transfected with PPL (unknown origin) and mouse B16-F10 cells at 10 uM incubated for 48 hrs by Masson-Fontana staining based analysis relative to control; assay type: functional
Mus musculus [42] = assay: Induction of melanogenesis in hydroquinone-induced vitiligo C57BL/6J mouse assessed as darker hair color administered topically for 20 days; assay type: functional, organism-based; settings: route top, time 20.0 day
[43] = Induction of melanogenesis in co-culture of HEK293 cells and mouse B16-F10 cells at 10 uM incubated for 48 hrs by Masson-Fontana staining based analysis relative to control; assay type: functional
Mus musculus [44] = assay: Induction of melanogenesis in hydroquinone-induced vitiligo C57BL/6J mouse at 1.5 % administered topically for 20 days by Masson-Fontana staining based analysis; assay type: functional, organism-based; settings: route top, time 20.0 day
Danio rerio [45] = organism: Danio rerio; assay: Effect on tryptophan metabolism in zebrafish embryo assessed as 5-HTOL metabolite level at 10 uM by LC/MS analysis; assay type: functional
Danio rerio [46] = organism: Danio rerio; assay: Binding affinity to PPL in zebrafish incubated for 10 mins by LiP-SMap analysis; settings: filed as agonist
Danio rerio [47] = organism: Danio rerio; assay: Effect on tryptophan metabolism in zebrafish embryo assessed as indican metabolite level at 10 uM by LC/MS analysis; assay type: functional

C=C1/C(=C\C=C2/CCC[C@]3(C)[C@@H]([C@H](C)/C=C/[C@@H](O)C4CC4)CC[C@@H]23)C[C@@H](O)C[C@@H]1O
Activity (Danio rerio [1]): Active

Cc1cc(-c2ccc([C@H](C)Nc3nccc(NS(=O)(=O)c4ccc(F)cc4)n3)cc2)ccc1F
Activity (Danio rerio [2]): 2175.78 nmol/kg | Activity (Danio rerio [3]): 0.09 nmol/kg | Activity (Danio rerio [4]): 13.62 nmol/kg | Activity (Danio rerio [5]): 109.36 nmol/kg | Activity (Danio rerio [6]): 21.42 nmol/kg | Activity (Danio rerio [7]): 1.12 nmol/kg | Activity (Danio rerio [8]): 105.04 nmol/kg | Activity (Danio rerio [9]): 0.85 nmol/kg | Activity (Danio rerio [10]): 42.55 nmol/kg | Activity (Danio rerio [11]): 25.11 nmol/kg | Activity (Danio rerio [12]): 234150.9 nmol/kg | Activity (Danio rerio [13]): 53.82 nmol/kg | Activity (Danio rerio [14]): 16.03 nmol/kg | Activity (Danio rerio [15]): 506.87 nmol/kg | Activity (Danio rerio [16]): 468.35 nmol/kg | Activity (Danio rerio [17]): 135.12% | Activity (Danio rerio [18]): 108.22 nmol/kg | Activity (Danio rerio [19]): 1.15 nmol/kg | Activity (Danio rerio [20]): 754.01 nmol/kg | Activity (Danio rerio [21]): 22.24 nmol/kg

C[C@H](Nc1nccc(NS(=O)(=O)c2cccc([N+](=O)[O-])c2)n1)c1ccc(-c2ccc(F)c(COCCCNC(=O)CCCC[C@@H]3SC[C@@H]4NC(=O)N[C@@H]43)c2)cc1
Activity (Danio rerio [22]): Active

Cc1cc(-c2ccc([C@H](C)Nc3nccc(NS(=O)(=O)c4cccc([N+](=O)[O-])c4)n3)cc2)ccc1F
Activity (Danio rerio [2]): 2295.89 nmol/kg | Activity (Danio rerio [23]): 1.2 nmol/kg | Activity (Danio rerio [24]): Active | Activity (Danio rerio [25]): Active | Activity (Danio rerio [26]): Active | Activity (Danio rerio [3]): 0.07 nmol/kg | Activity (Danio rerio [27]): Dose-dependent-effect | Activity (Danio rerio [28]): No effect | Activity (Danio rerio [4]): 15.09 nmol/kg | Emax at 40 µM (Danio rerio [29]): 197% | Activity (Danio rerio [30]): No effect | Activity (Danio rerio [31]): Active | Activity (Danio rerio [5]): 81.53 nmol/kg | Activity (Mus musculus [32]): Active | Activity (Danio rerio [6]): 21.8 nmol/kg | Activity (Danio rerio [33]): Active | Activity (Danio rerio [7]): 8.23 nmol/kg | Activity (Danio rerio [8]): 76.93 nmol/kg | Activity (Danio rerio [34]): Active | Activity (Danio rerio [35]): Active | Activity (Danio rerio [36]): Active | Activity (Danio rerio [37]): Active | Activity (Danio rerio [9]): 4.89 nmol/kg | Activity (Danio rerio [10]): 41.08 nmol/kg | Activity (Danio rerio [11]): 24.76 nmol/kg | Activity (Danio rerio [12]): 203749.8 nmol/kg | Activity (Danio rerio [13]): 41.42 nmol/kg | Activity (Danio rerio [38]): Active | Activity (Danio rerio [39]): inactive | Activity (Danio rerio [14]): 16.28 nmol/kg | Activity (Danio rerio [40]): Active | Activity (Danio rerio [15]): 527.99 nmol/kg | Activity (Danio rerio [16]): 399.41 nmol/kg | Activity [41]: 137.24% | Activity (Mus musculus [42]): Dose-dependent-effect | Activity [43]: 107.32% | Activity (Danio rerio [17]): 171.43% | Activity (Danio rerio [18]): 109.9 nmol/kg | Activity (Danio rerio [19]): 3.14 nmol/kg | Activity (Mus musculus [44]): Active; Calcipotriene And Ruxolitinib Was Considerably Less Than The Compound At Concentration Of 1.5% | Activity (Danio rerio [45]): 0.03 nmol/kg | Activity (Danio rerio [20]): 635.89 nmol/kg | Activity (Danio rerio [21]): 20.08 nmol/kg | Activity (Danio rerio [46]): Active

Cc1cc(-c2ccc([C@H](C)Nc3nccc(NS(=O)(=O)c4ccc([N+](=O)[O-])cc4)n3)cc2)ccc1F
Activity (Danio rerio [2]): 2107.11 nmol/kg | Activity (Danio rerio [23]): 2.84 nmol/kg | Activity (Danio rerio [3]): 0.06 nmol/kg | Activity (Danio rerio [4]): 14.25 nmol/kg | Activity (Danio rerio [5]): 93.63 nmol/kg | Activity (Danio rerio [6]): 22 nmol/kg | Activity (Danio rerio [8]): 55.63 nmol/kg | Activity (Danio rerio [47]): 0.95 nmol/kg | Activity (Danio rerio [9]): 3.45 nmol/kg | Activity (Danio rerio [10]): 54.62 nmol/kg | Activity (Danio rerio [11]): 38.27 nmol/kg | Activity (Danio rerio [12]): 206300.5 nmol/kg | Activity (Danio rerio [13]): 32.11 nmol/kg | Activity (Danio rerio [14]): 17.69 nmol/kg | Activity (Danio rerio [15]): 582.83 nmol/kg | Activity (Danio rerio [16]): 430.99 nmol/kg | Activity (Danio rerio [17]): 108.21% | Activity (Danio rerio [18]): 105.98 nmol/kg | Activity (Danio rerio [19]): 3.54 nmol/kg | Activity (Danio rerio [45]): 0.03 nmol/kg | Activity (Danio rerio [20]): 788.07 nmol/kg | Activity (Danio rerio [21]): 19.38 nmol/kg
